Measured values taken from ChEMBL document CHEMBL5360545, “Multitargeted drug design strategy for discovery of short-peptide-based HIV-1 entry inhibitors with high potency” (Eur J Med Chem, 2023).
Side chains are listed from the residue outwards. Peptide text beside a SMILES is read from it. * marks the point of attachment. PEG24 = NCCOCCOCCOCCOCCOCCOCCOCCOCCOCCOCCOCCOCCOCCOCCOCCOCCOCCOCCOCCOCCOCCOCCOCCOCCC(=O)O; X1 = CC(=O)N1CCC(C(=O)N(CCCN2CCC(Cc3ccc(C(=O)*)cc3)CC2)c2ccc(C)c(Cl)c2)CC1; PEG12 = NCCOCCOCCOCCOCCOCCOCCOCCOCCOCCOCCOCCOCCC(=O)O; PEG8 = NCCOCCOCCOCCOCCOCCOCCOCCOCCC(=O)O

System: Human immunodeficiency virus 1
Assay: Antiviral activity against HIV-1 Bal-R5 infected in human CEMx174 5.25M7 cells assessed as reduction in p24 antigen level measured after 4 days by ELISA
Assay type: functional, organism-based
Details: Human immunodeficiency virus 1, Bal-R5, CEMx174 5.25M7, 96 h

Row | SMILES | EC50 [nM]
1 | CC[C@H](C)[C@H](NC(=O)[C@H](CCCCN)NC(=O)[C@H](CCC(N)=O)NC(=O)[C@H](CCC(=O)O)NC(=O)[C@H](Cc1c[nH]c2ccccc12)NC(C)=O)C(=O)N[C@@H](CCC(=O)O)C(=O)N[C@@H](CCC(=O)O)C(=O)N[C@@H](CC(C)C)C(=O)N[C@@H](CC(C)C)C(=O)N[C@@H](CCCCN)C(=O)N[C@@H](CCCCN)C(=O)N[C@@H](C)C(=O)N[C@@H](CCC(=O)O)C(=O)N[C@@H](CCC(=O)O)C(=O)N[C@@H](CCC(N)=O)C(=O)N[C@@H](CCC(N)=O)C(=O)N[C@@H](CCCCN)C(=O)N[C@@H](CCCCN)C(=O)N[C@@H](CC(N)=O)C(=O)N[C@@H](CCC(=O)O)C(=O)N[C@@H](CCC(=O)O)C(=O)N[C@@H](CCC(=O)O)C(=O)N[C@@H](CC(C)C)C(=O)N[C@@H](CCCCN)C(=O)N[C@@H](CCCCN)C(=O)N[C@@H](CC(C)C)C(=O)N[C@@H](CCC(=O)O)C(=O)N[C@@H](CCCCN)C(=O)N[C@@H](CCCCNC(=O)CCOCCOCCOCCOCCOCCOCCOCCOCCOCCOCCOCCOCCNC(=O)c1ccc(CC2CCN(CCCN(C(=O)C3CCN(C(C)=O)CC3)c3ccc(C)c(Cl)c3)CC2)cc1)C(N)=O (Ac-WEQKIEELLKKAEEQQKKNEEELKKLEKK([PEG12-X1])-NH2) | 0.35
2 | CC[C@H](C)[C@H](NC(=O)[C@H](CCCCN)NC(=O)[C@H](CCC(N)=O)NC(=O)[C@H](CCC(=O)O)NC(=O)[C@H](Cc1c[nH]c2ccccc12)NC(C)=O)C(=O)N[C@@H](CCC(=O)O)C(=O)N[C@@H](CCC(=O)O)C(=O)N[C@@H](CC(C)C)C(=O)N[C@@H](CC(C)C)C(=O)N[C@@H](CCCCN)C(=O)N[C@@H](CCCCN)C(=O)N[C@@H](C)C(=O)N[C@@H](CCC(=O)O)C(=O)N[C@@H](CCC(=O)O)C(=O)N[C@@H](CCC(N)=O)C(=O)N[C@@H](CCC(N)=O)C(=O)N[C@@H](CCCCN)C(=O)N[C@@H](CCCCN)C(=O)N[C@@H](CC(N)=O)C(=O)N[C@@H](CCC(=O)O)C(=O)N[C@@H](CCC(=O)O)C(=O)N[C@@H](CCC(=O)O)C(=O)N[C@@H](CC(C)C)C(=O)N[C@@H](CCCCN)C(=O)N[C@@H](CCCCN)C(=O)N[C@@H](CC(C)C)C(=O)N[C@@H](CCC(=O)O)C(=O)N[C@@H](CCCCN)C(=O)N[C@@H](CCCCNC(=O)CCOCCOCCOCCOCCOCCOCCOCCOCCNC(=O)c1ccc(CC2CCN(CCCN(C(=O)C3CCN(C(C)=O)CC3)c3ccc(C)c(Cl)c3)CC2)cc1)C(N)=O (Ac-WEQKIEELLKKAEEQQKKNEEELKKLEKK([PEG8-X1])-NH2) | 1.52
3 | CC[C@H](C)[C@H](NC(=O)[C@H](CCCCN)NC(=O)[C@H](CCC(N)=O)NC(=O)[C@H](CCC(=O)O)NC(=O)[C@H](Cc1c[nH]c2ccccc12)NC(C)=O)C(=O)N[C@@H](CCC(=O)O)C(=O)N[C@@H](CCC(=O)O)C(=O)N[C@@H](CC(C)C)C(=O)N[C@@H](CC(C)C)C(=O)N[C@@H](CCCCN)C(=O)N[C@@H](CCCCN)C(=O)N[C@@H](C)C(=O)N[C@@H](CCC(=O)O)C(=O)N[C@@H](CCC(=O)O)C(=O)N[C@@H](CCC(N)=O)C(=O)N[C@@H](CCC(N)=O)C(=O)N[C@@H](CCCCN)C(=O)N[C@@H](CCCCN)C(=O)N[C@@H](CC(N)=O)C(=O)N[C@@H](CCC(=O)O)C(=O)N[C@@H](CCC(=O)O)C(=O)N[C@@H](CCC(=O)O)C(=O)N[C@@H](CC(C)C)C(=O)N[C@@H](CCCCN)C(=O)N[C@@H](CCCCN)C(=O)N[C@@H](CC(C)C)C(=O)N[C@@H](CCC(=O)O)C(=O)N[C@@H](CCCCN)C(=O)N[C@@H](CCCCNC(=O)CCOCCOCCOCCOCCOCCOCCOCCOCCOCCOCCOCCOCCOCCOCCOCCOCCOCCOCCOCCOCCOCCOCCOCCOCCNC(=O)c1ccc(CC2CCN(CCCN(C(=O)C3CCN(C(C)=O)CC3)c3ccc(C)c(Cl)c3)CC2)cc1)C(N)=O (Ac-WEQKIEELLKKAEEQQKKNEEELKKLEKK([PEG24-X1])-NH2) | 0.12
